{
  "source": "patent US6071884A",
  "about": "“Pharmaceutical compositions and therapeutic methods” (Kirin Beer Kabushiki Kaisha, priority 1992, dated 2000)",
  "key": {"[1]": {"tested_on": "marrow cells (mononuclear cell fraction)", "test": "Effect on marrow cell of monkey (3H-TdR uptake)", "type": "cell-based, croo monkey", "settings": "Primates, 96 h, percentage of control, 4 days", "description": "Pharmacological Test 2: Effect on Marrow Cell of Monkey\nMarrow cells were prepared from the humerus of a croo monkey, and an MNF obtained by fractionation using a Lymphoprep (Nycomed Pharma AS, Oslo, Norway) was used in the following experiment.\nThe MNF was suspended in an RPMI 1640 medium added with 10% blood plasma of a croo monkey to make its concentration 1×10^6 cells/ml.\n10 μl/well of a sample with a predetermined concentration and 100 μl/well of the above-prepared MNF were placed on a round-bottomed 96 well plate, and incubated under the conditions of 37° C. and 5% CO2 for 4 days. Thereafter, 0.5 μCi/well of ^3 H-TdR was added. After 6 hours, the cells were harvested, and the amount of the ^3 H-TdR taken in the nuclei was measured by a liquid scintillation counter."}, "[2]": {"tested_on": "blood platelets", "test": "Blood-platelet-increasing effect upon monkey", "type": "in vivo, croo monkey", "settings": "for Number of Blood Platelets: mean ± SD", "description": "Subsequently, in order to examine the effect on Primates, the effect of Compound 33 was examined as a representative of the compounds represented by the formula (A), by using normal croo monkeys.\n(§1) Pharmacological Test 7: Blood-Platelet-Increasing Effect upon Monkey\n(§2) Six croo monkeys (female, 3 to 5 years old, 2.3 to 2.8 kg), 2 monkeys in one group were used. A vehicle, 0.1 mg/body of the compound 33 or 1 mg/body of the compound 33 was intravenously administered to the monkeys. 6 and 9 days after the administration, blood was collected by using a blood-collecting tube EDTA-2K, and the numbers of blood platelets, white blood cells and red blood cells contained in the peripheral blood were measured by using an E-2500/cs. The results are shown in Tables 7-1, 7-2 and 7-3, respectively."}, "[3]": {"test": "Observation of body weight and general condition in monkey", "type": "in vivo, croo monkey", "settings": "1 mg/body i.v.; until 10 days after administration"}, "[4]": {"test": "Acute toxicity", "type": "in vivo", "settings": "7 days", "description": "Test Example 2: Acute Toxicity\n0.1, 1.0 or 10 mg/kg of Compound 5 or 33 was intravenously administered to Crj:CD rats (male, 5 weeks old), 6 rats in one group. 7 days after the administration, a toxicity test was carried out."}, "[5]": {"tested_on": "red blood cells", "test": "Red blood cell count in monkey", "type": "in vivo, croo monkey", "settings": "for Number of Red Blood Cells: mean ± SD", "description": "as §1, §2"}, "[6]": {"tested_on": "marrow cells (mononuclear cell fraction)", "test": "Proliferation-stimulating effect on marrow cell of mouse (3H-TdR uptake)", "type": "cell-based, mouse (BALB/c)", "settings": "percentage of control, 72 h", "procedure,_shortened": "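Mononuclear marrow cell fraction from 7-week-old female BALB/c mouse thigh bone, 1.5×10^6 cells/ml in 10% FCS RPMI 1640, cultured with test sample 72 h at 37° C. ³H-thymidine (0.5 μCi/well) then added for 8 h; nuclear ³H-TdR uptake counted by liquid scintillation.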"}, "[7]": {"test": "Life-span-increasing effect on irradiation of a lethal dose of radiation", "type": "in vivo, mouse (BDF1)", "settings": "10 mice/group, 9 Gy X-ray, 0.1 mg/kg i.v. days 0, 4, 8", "description": "Pharmacological Test 4: Life-Span-Increasing Effect on Irradiation of a Lethal Dose of Radiation\nAn experiment was carried out by using 6 week old female BDF1 mice purchased from Japan SLC Co., Ltd., with 10 mice made one group.\nThe entire bodies of the entire body of the mice were irradiated with 9 Gy of X-rays by using a Hitachi X-ray irradiator (MBR-1520R), and the day on which the X-ray was irradiated was referred to as \"day 0\"."}, "[8]": {"tested_on": "white blood cells", "test": "White blood cell count in monkey", "type": "in vivo, croo monkey", "settings": "for Number of White Blood Cells: mean ± SD", "description": "as §1, §2"}, "[9]": {"tested_on": "blood platelets", "test": "Blood-platelet-increasing effect upon normal mouse", "type": "in vivo, mouse (BDF1)", "settings": "normal mice; 6 days after 0.1 mg/kg i.v.; mean ± SD; vehicle per series 58.2, 63.0, 71.1", "procedure,_shortened": "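Female BDF1 mice, 6 weeks old (5 per group), received test sample at 0.1 mg/kg into the caudal vein. Six days later, fundus-vein blood was taken and platelets counted on a multi-channel hemocytometer, compared against vehicle-treated animals.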"}},
  "data": [
    {"smiles": "CCCCCCCCCCCCCCCCCCCCCCCCCC(=O)N[C@@H](CO[C@H]1O[C@H](CO)[C@H](O)[C@H](O)[C@H]1O)[C@H](O)[C@H](O)CCCCCCCCCCCCCC", "note": "[Compound 33, (2S,3S,4R)-1-(α-D-galactopyranosyloxy)-2-hexacosanoylamino-3,4-octadecanediol]", "values": [
      {"measurement": "activity at 0.1 µg/mL", "setting": "[1]; 10^-1 μg/ml", "value": 177, "unit": "%"},
      {"measurement": "activity at 0.01 µg/mL", "setting": "[1]; 10^-2 μg/ml", "value": 194, "unit": "%"},
      {"measurement": "Number of Blood Platelets", "setting": "[2]; 0.1 mg/body i.v., after 6 days, vehicle 37.8 ± 8.5", "value": "56.4 ± 5.2 × 10^4 /μl"},
      {"measurement": "Number of Blood Platelets", "setting": "[2]; 0.1 mg/body i.v., after 9 days, vehicle 37.4 ± 12.4", "value": "52.4 ± 9.0 × 10^4 /μl"},
      {"measurement": "blood-platelet-increasing effect (in words)", "setting": "[2]; 0.1 mg/body, almost equal to 1 mg/body", "value": "remarkable blood-platelet-increasing effect"},
      {"measurement": "Number of Blood Platelets", "setting": "[2]; 1 mg/body i.v., after 6 days, vehicle 37.8 ± 8.5", "value": "62.1 ± 15.9 × 10^4 /μl"},
      {"measurement": "Number of Blood Platelets", "setting": "[2]; 1 mg/body i.v., after 9 days, vehicle 37.4 ± 12.4", "value": "64.7 ± 23.7 × 10^4 /μl"},
      {"measurement": "abnormality in body weight and in general condition", "setting": "[3]", "value": "no abnormality in body weight and in general condition was found"},
      {"measurement": "death of rats", "setting": "[4]; 10 mg/kg i.v.", "value": "the rats did not die"},
      {"measurement": "post-mortem examination", "setting": "[4]; i.v. 0.1, 1.0 or 10 mg/kg", "value": "no abnormality was found"},
      {"measurement": "LD50 at 168 h", "setting": "[4]; rat, in vivo, iv, male rats", "value": "≥ 10", "unit": "mg/kg"},
      {"measurement": "Number of Red Blood Cells", "setting": "[5]; 0.1 mg/body i.v., after 6 days, vehicle 516 ± 6", "value": "498 ± 18 × 10^4 /μl"},
      {"measurement": "Number of Red Blood Cells", "setting": "[5]; 0.1 mg/body i.v., after 9 days, vehicle 506 ± 1", "value": "538 ± 2 × 10^4 /μl"},
      {"measurement": "red-blood-cell-increasing effect (in words)", "setting": "[5]; 0.1 mg/body, 9 days after administration", "value": "red-blood-cell-increasing effect was clearly found"},
      {"measurement": "Number of Red Blood Cells", "setting": "[5]; 1 mg/body i.v., after 6 days, vehicle 516 ± 6", "value": "569 ± 40 × 10^4 /μl"},
      {"measurement": "Number of Red Blood Cells", "setting": "[5]; 1 mg/body i.v., after 9 days, vehicle 506 ± 1", "value": "574 ± 37 × 10^4 /μl"},
      {"measurement": "activity at 0.1 µg/mL", "setting": "[6]; 10^-1 μg/ml", "value": 460, "unit": "%"},
      {"measurement": "activity at 0.01 µg/mL", "setting": "[6]; 10^-2 μg/ml", "value": 330, "unit": "%"},
      {"measurement": "activity at 0.001 µg/mL", "setting": "[6]; 10^-3 μg/ml", "value": 175, "unit": "%"},
      {"measurement": "Number of Surviving Mice", "setting": "[7]; day 10, controls per series 10, 10, 10, 10, 10, 8", "value": 10, "unit": "mice"},
      {"measurement": "Number of Surviving Mice", "setting": "[7]; day 15, controls per series 8, 9, 5, 5, 7, 1", "value": 8, "unit": "mice"},
      {"measurement": "Number of Surviving Mice", "setting": "[7]; day 20, controls per series 4, 5, 1, 2, 3, 0", "value": 7, "unit": "mice"},
      {"measurement": "Number of Surviving Mice", "setting": "[7]; day 25, controls per series 3, 3, 0, 0, 2, 0", "value": 5, "unit": "mice"},
      {"measurement": "Number of Surviving Mice", "setting": "[7]; day 30, controls per series 1, 1, 0, 0, 0, 0", "value": 5, "unit": "mice"},
      {"measurement": "Number of Surviving Mice", "setting": "[7]; day 35, all controls 0", "value": 5, "unit": "mice"},
      {"measurement": "Number of Surviving Mice", "setting": "[7]; day 40, all controls 0", "value": 5, "unit": "mice"},
      {"measurement": "Number of White Blood Cells", "setting": "[8]; 0.1 mg/body i.v., after 6 days, vehicle 91 ± 31", "value": "156 ± 1 × 10^2 /μl"},
      {"measurement": "Number of White Blood Cells", "setting": "[8]; 0.1 mg/body i.v., after 9 days, vehicle 94 ± 57", "value": "105 ± 15 × 10^2 /μl"},
      {"measurement": "white-blood-cell-increasing effect (in words)", "setting": "[8]; 0.1 mg/body, 6 days after administration, equal to 1 mg/body", "value": "remarkable white-blood-cell-increasing effect"},
      {"measurement": "Number of White Blood Cells", "setting": "[8]; 1 mg/body i.v., after 6 days, vehicle 91 ± 31", "value": "150 ± 37 × 10^2 /μl"},
      {"measurement": "Number of White Blood Cells", "setting": "[8]; 1 mg/body i.v., after 9 days, vehicle 94 ± 57", "value": "169 ± 21 × 10^2 /μl"},
      {"measurement": "Number of Blood Platelets", "setting": "[9]", "value": "142.3 ± 10.2 × 10^4 /μl"}
    ]}
  ]
}
